What was measured:
shaved Balb/C mice = test: PDT-induced stimulation of hair growth using topically-applied photosensitizer in shaved Balb/c mice; assay type: in vivo
Description: To prepare QLT 0074-containing ointment, QLT 0074 photosensitizer was dissolved in glacial acetic acid to solubilize it. The solution was then frozen in a dry ice/isopropanol bath and the acetic acid was removed by lyophilization. The resultant material was a fine fluffy powder. […] The ointment base was prepared by first warming polyethylene glycol 200 (PEG 200) to 80-90° C. with stirring. Polyethylene glycol 3350 (PEG 3.35 K) was then added with stirring, followed by oleyl alcohol, and then diethylene glycol monoethyl ether. Stirring was continued until the solution was clear. The ointment base was cooled to approximately 50° C., and the QLT 0074 was added with stirring. Stirring was continued as the mixture cooled, until a homogenous paste was achieved. […]
Female Balb/C mice (8-14 weeks old) were supplied by Charles River Canada (St. Constance, Quebec). […] Mice were randomly assigned to PDT treatment and controlled groups, and were monitored for pain or distress.
Eighteen mice were shaved to remove hair from the back and both flanks. […] QLT 0074-containing ointment was applied to a square spot on the left side of each of mice 1-9 using a square template, with the same quantity of ointment applied to each spot. […]

[1] = tested on: shaved female Balb/c mice; test: Optimization of drug concentration, irradiation dose and light intensity on hair regrowth in shaved mice, topical QLT 0074; assay type: in vivo; conditions: for hair regrowth at the treatment site: 0.5% ointment
Description: A study was performed to assess the effect of drug concentration (0.005, 0.05, or 0.5% QLT 0074 ointment), light dose (50, 100 or 150 J/cm^2 red light) and light intensity 50 or 200 mW/cm) on hair regrowth in shaved female Balb/c mice. Mice received QLT 0074 ointment applied to the skin for 30 minutes, followed by a 15-minute treatment with placebo ointment and exposure to red light (688 nm). One group received no QLT 0074 ointment, only the placebo ointment and light exposure. Preparation of ointments and treatment procedure was as outlined in Example 2, except that different amounts of QLT 0074 were added.
Ointments were prepared as in Example 2, except that different amounts of QLT 0074 (on a weight/weight basis) were incorporated into the ointments. The treatment procedure was as outlined in Example 2.

[2] = tested on: human males with type II or III Vertex alopecia (AGA); test: Stimulation of hair growth in human subjects with AGA (single topical PDT, terminal hair counts); assay type: in vivo; conditions: 0.2% w/w ointment, 50 and 75 J/cm^2; 10 subjects; during and after treatment
Description: A total of 10 subjects were treated. All subjects were human males over 18 years of age and had type II or III Vertex alopecia, rated according to the modified Hamilton-Norwood scale. All subjects received a single application of topical QLT0074 ointment 0.2% weight in weight (w/w) to two of three circular test sites on the vertex area of the scalp. The amount of ointment applied to each test site was approximately 224 mg (about 0.44 mg of photosensitizer per test site). After 2 hours the excess drug was removed and red light (LED's—690 nm) was administered to two of the three sites. The other test site served as a control with no drug or light administration.
Two light dose cohorts (50 and 75 J/cm^2) were investigated with each cohort having 5 subjects.
Safety was assessed by monitoring all adverse events during and after the treatment.
The efficacy was assessed by hair counts 3 months after the treatment and compared to baseline counts.

[3] = tested on: C3H/HeJ female mice exhibiting hair loss; test: Stimulation of hair growth in a mouse model of alopecia areata (topical PDT); assay type: in vivo; conditions: 0.2% (w/w) ointment
From the text: A disease closely resembling human alopecia areata has been observed in aging (over 6-month old) C3H/HeJ mice (see Sundberg, J. P et al, Alopecia Areata in Aging C3H/HeJ Mice, Journal of Investigative Dermatology 102(6): 847-856 [1994[). […] All other areas outside of the treatment site were left untreated.
Following this treatment, all 3 mice received a dose of 50 J/cm^2 688 nm light delivered at a rate of 50 mw/cm^2 in the 1.5 square area. Mice were monitored for skin photosensitivity reactions on Days 1 and 3 after light exposure and observed for hair re-growth for up to 19 days post-treatment.

patients = conditions: topical 0.5% HP and UVA three times a week; first week of treatment; two patients; cited from earlier work
alopecia areata patients = conditions: 2% khellin and UVA, cited from earlier work

**Q.** What does the source list for `C=Cc1c(C)c2cc3nc(cc4[nH]c(cc5nc(cc1[nH]2)C(C)=C5CCC(=O)OCCO)c(CCC(=O)OCCO)c4C)[C@@]1(C)C3=CC=C(C(=O)OC)[C@H]1C(=O)OC` [QLT 0074]?
**A.** hair re-growth, representative mouse (FIG. 4) (shaved Balb/C mice; 17 days after PDT treatment): Hair re-growth was observed; number of mice that developed hair growth on the treated area by day 17 (shaved Balb/C mice; out of nine mice, 0.5% w/w ointment 30 min, 688 nm 50 J/cm^2 at 200 mW/cm^2): five; hair growth ([1]; 0.05% ointment, any light dose): did not exhibit hair growth; hair regrowth at the treatment site ([1]; 50, 100 or 150 J/cm^2 at 200 mW/cm^2): Hair regrowth at the treatment site was observed; hair regrowth at the treatment site ([1]; 50 or 100 J/cm^2 red light at 50 mW/cm^2): Hair regrowth at the treatment site was also observed; moderate or severe skin photosensitivity reactions ([1]; all drug and light dose combinations): no moderate or severe skin photosensitivity reactions were observed; number of animals with hair regrowth at the treatment site ([1]; of three animals, 0.005% ointment, 150 J/cm^2 at 200 mW/cm^2): one; skin reactions following treatment ([1]; some treatments, typically highest drug and light dose combinations): Mild skin reactions were evident; serious adverse events [2]: No serious adverse events were reported; skin photosensitivity reactions ([3]; 50 J/cm^2 688 nm at 50 mw/cm^2, Days 1 and 3 after light exposure): no skin photosensitivity reactions were observed; number of mice with increased amount of hair in the treatment area ([3]; of the 3 mice treated, day 7 post-treatment, 50 J/cm^2 688 nm): 2

**Q.** For `CC1=C(CCC(=O)O)c2cc3[nH]c(cc4nc(cc5[nH]c(cc1n2)c(C)c5C(C)O)C(C)=C4C(C)O)c(C)c3CCC(=O)O` (centres unmarked) [hematoporphyrin, Hematoporphyrin], which “skin reactions in treated sites” value (patients) is on record?
**A.** significant erythema and mild scaling followed by hyperpigmentation

**Q.** For `COc1c2occc2c(OC)c2c(=O)cc(C)oc12` [khellin], which phototoxicity (alopecia areata patients) is on record?
**A.** did not cause phototoxicity

**Q.** What about the “number of patients treated successfully” value (alopecia areata patients; of the 10 patients tested) of the same molecule?
**A.** 5
